# From patent US12366570B2, “Cell-based ZNT8 assay” (THE JOHNS HOPKINS UNIVERSITY, priority 2019, dated 2025)
# T1: ZnT8 (Homo sapiens, UniProt Q8IWU4)
# T1 sequence (Q8IWU4 1-369): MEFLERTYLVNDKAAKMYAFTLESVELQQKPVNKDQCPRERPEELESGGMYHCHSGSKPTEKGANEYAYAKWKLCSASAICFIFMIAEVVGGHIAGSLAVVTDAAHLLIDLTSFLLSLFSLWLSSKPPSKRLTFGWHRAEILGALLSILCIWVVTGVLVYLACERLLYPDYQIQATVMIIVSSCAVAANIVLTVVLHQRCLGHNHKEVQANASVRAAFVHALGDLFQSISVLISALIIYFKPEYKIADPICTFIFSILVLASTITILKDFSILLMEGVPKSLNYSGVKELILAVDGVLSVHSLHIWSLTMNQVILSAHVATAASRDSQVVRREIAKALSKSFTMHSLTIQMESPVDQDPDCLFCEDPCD
# B1: mAb20: anti-ZnT8 monoclonal antibody; heavy chain and light chain SEQ ID NOS:32 and 37 (antibody)
# heavy: MDMRVPAQLLGLLLLWLRGARCQIQLVQSGPELKKPGETVKISCKASGYIFTNYPMHWVKQAPGKGLKWMGWINTYSGVPTHADDFKGRFAFSLETSANSAFLQINNLKNEDTATYFCTRSRITPTGGYAMDYWGQGTSVTVSSAKTTPPSVYPLAPGSAAQTNSMVTLGCLVKGYFPEPVTVTWNSGSLSSGVHTFPAVLQSDLYTLSSSVTVPSSTWPSETVTCNVAHPASSTKVDKKIVPRDCGCKPCICTVPEVSSVFIFPPKPKDVLTITLTPKVTCVVVDISKDDPEVQFSWFVDDVEVHTAQTQPREEQFNSTFRSVSELPIMHQDWLNGKEFKCRVNSAAFPAPIEKTISKTKGRPKAPQVYTIPPPKEQMAKDKVSLTCMITDFFPEDITVEWQWNGQPAENYKNTQPIMDTDGSYFVYSKLNVQKSNWEAGNTFTCSVLHEGLHNHHTEKSLSHSPGK
# light: MDMRVPAQLLGLLLLWLRGARCDVVMTQTPLSLPVSLGDQASISCRSSQSLVHSNGNTYLHWYLQKPGQSPNLLISKVSNRFSGVPERFSGSGSGTDFTLKISRVEAEDLGVYFCSQNTHVPWTFGGGTKLEIKRADAAPTVSIFPPSSEQLTSGGASVVCFLNNFYPKDINVKWKIDGSERQNGVLNSWTDQDSKDSTYSMSSTLTLTKDEYERHNSYTCEATHKTSTSPIVKSFNRNEC
# modifications: mAb20 heavy chain; mAb20 light chain
# B2: mAb39: anti-ZnT8 monoclonal antibody; heavy chain and light chain SEQ ID NOS:52 and 57 (antibody)
# heavy: MGWSCIMFFLVATATDVHSQVQLQQPGAELVKPGASVKLSCKASGYSFTTYWMHWVKQRPGQGLEWVGDINPRNGRTNYNEKSKSKATLTVDISSSTVYMQVSSLTSEDSAVYYCAIWSGAMDYWGPGTSVTVSSAKTTAPSVYPLAPVCGDTTGSSVTLGCLVKGYFPEPVTLTWNSGSLSSDVHTFPALLQSGLYTLSSSVTVTTWPSQTITCNVAHPASSTKVDKKIEPRGSPTHKPCPPCPAPNLLGGPSVFIFPPKIKDVLMISLSPMVTCVVVDVSEDDPDVHVSWFVNNVEVHTAQTQTHREDYNSTIRVVSALPIQHQDWMSGKEFKCKVNNKALPAPIERTISKPKGPVRAPQVYVLPPPEEEMTKKQVTLTCMITDFMPEDIYVEWTNNGQTELNYKNTEPVLDSDGSYFMYSKLRVEKKNWVERNSYSCSVVHEGLHNHHTTKSFSRSPGK
# light: MKLPVRLLVLMFWIPASSSDVVMTQTPLSLPVSLGDQPSISCKSSQSLVHNNGNTYLHWYLQKPGQSPKLLIYKVSNRFSGVPDRFSGSGSGTDFTLKISRVEAEDLGVYFCSQTTHVPPTFGGGTKLEIKRADAAPTVSIFPPSSEQLTSGGASVVCFLNNFYPKDINVKWKIDGSERQNGVLNSWTDQDSKDSTYSMSSTLTLTKDEYERHNSYTCEATHKTSTSPIVKSFNRGEC
# modifications: mAb39 heavy chain; mAb39 light chain
# Tests used:
# [1] = test system: endogenous ZnT8 in EndoC-βH1 cells; experiment: In-cell ZnT8-ELISA tracking the endogenous ZnT8 level under stressor exposure; type: cell-based, human
# Experimental: Stressor exposures. PA-BSA conjugation was prepared by adding PA powder to a final concentration of 8 mM in 1.6 mM FFA-free BSA (Sigma, Cat. #A7030-50G) pre-dissolved in 135 mM NaCl, 3.6 mM KCl, 0.5 mM MgCl2, and 10 mM HEPES (pH 7.4). The mixture was incubated with gentle stir at 37° C. and then filter-sterilized and stored at 4° C. as described previously (79). When added to the cell culture, the PA-BSA mixture was diluted 13.3-fold with supplement of glucose to make a 1× Glc+PA solution containing 0.6 mM PA and 48 mM Glc. A cytokine cocktail was prepared before each experiment by mixing individual stock solutions of IL-1β, IFN-γ, IL-17, […] at respective concentrations used previously on human islets and EndoC-PHI cells (37). 1× cytokine cocktail in the culture medium contained 5 ng/ml IL-1β, 10 ng/ml TNF-α, 50 ng/ml IFN-γ and 100 ng/ml IL-17 All cytokines were provided by R&D Systems (Minneapolis, MN, USA). […] After a designated exposure period, the endogenous ZnT8 level in each well was analyzed along with stress-induced cytotoxicity, GSIS and cellular insulin content. […]
# In-cell ELISAs. […] The HRP reaction was terminated at 5 min by transferring the reaction mixture to a 96-well opaque microplate for chemiluminescence quantification on a FlexStation-3 multi-mode microplate reader.
# EndoC-βH1 cells [2] = experiment: Total cellular insulin content, HTRF insulin assay; type: cell-based, human; conditions: 24 hr
# Experimental: GSIS and insulin quantification. EndoC-βH1 cells with dose titrations of Glc+PA, zinc or cytokines cocktail in a 96-well plate were switched to a Krebs buffer (Alfa Aesar, cat. #J67795). After cell starvation in Krebs buffer for 1 h, EndoC-βH1 cells were replaced with fresh Krebs buffer containing 20 mM glucose plus 45 μM IBMX. After 45 min, the Krebs buffer was collected for measurement of secreted insulin. Cells were then lysed by 100 μl/well Krebs buffer with 1% DDM. Total insulin content was measured in 100-fold diluted cell lysate, A homogeneous time resolved fluorescence (HTRF) based ultra-sensitive insulin kit (Cisbio, cat. #62IN2PEG) was used to detect both secreted and total insulin as described previously (60).
# EndoC-βH1 cells [3] = experiment: CellTox Green cytotoxicity assay; type: cell-based
# Experimental: Cytotoxicity Assay. Cell culture and experiments were performed in a 96-well plate in culture media without phenol red (Sigma, Cat. #D4947). Cytotoxicity in cell culture after experimental manipulation was continuously monitored based on the change in the fluorescence intensity of a CellTox Green Dye (Promega, Cat. #G8741) that preferentially stained dead cells with a loss of membrane integrity. The dye was 1:1000 diluted in the culture medium and delivered directly to cells at the same time of dose titrations of Glc+PA, zinc and cytokines. CellTox fluorescence signals were recorded on a FlexStation-3 multi-mode microplate reader with eight replicates at 0, 1, 2, 4, 6, 8, 20, 24, 30, and 48 hr following dye and stressor additions. Viable cells in the control cell culture medium produced no appreciable increases in CellTox fluorescence due to an excellent tolerance of EndoC-βH1 cells to the dye. At the end of experiment, all cells were lysed by adding detergent (DDM) to 0.1% in each well, and the maximum CellTox fluorescence intensity was recoded and used for normalization of the CellTox fluorescence intensity.
# (§1) SLC30A8 knockdown. To perform gene silencing by RNA interference, a master mix of Opti-MEM reduced serum-free medium (Gibco, cat. #31985-062) was pre-mixed with 0.4% RNAiMAX transfection reagent (Invitrogen, cat. #13778-100) and 75 nM ZnT8 targeting or scrambled siRNA (OriGene cat. #SR325944). The solution was then incubated at room temperature for 10 min to form siRNA-lipid complexes before 50 μl of the master mix was added to each well in a 96-well plate. Cells resuspended in standard culturing media were added in a 1:1 volume to give 7×10^4 cells per well. After 24 h, the transfection media were replaced with complete culturing media. After additional 2 days, cells were exposed to 1× cytokine cocktail, followed by immunoblotting and cytotoxicity analysis as described above.
# ZnT8 [4] = experiment: Immunoblotting of ZnT8 (mAb20) in total cell lysate; type: cell-based, human; conditions: 24 hr
# Experimental: Immunoblotting. Cells in a 96-well plate were directly resuspended in 50 μl/well 1× Laemmli Sample Buffer (Bio-Rad cat. #1610737). An aliquot of 15 μl SDS-lysate was loaded onto a precast protein gel for SDS-PAGE and subsequent immunoblotting using the following antibodies directed to ZnT8 (mAb20), tubulin (Invitrogen, Cat. #MA1-83256), calnexin (Proteintech, Cat. #10427-2-AP), BAP31 (Proteintech, Cat. #11200-1-AP), IA2 (Proteintech, Cat. #10584-1-AP), TMED3 (Proteintech, Cat. #21902-1-AP), VAMP2 (Proteintech, Cat. #10135-1-AP), Golgin97 (Proteintech, Cat. #12640-1-AP) and HLA-I (Proteintech, Cat. #15240-1-AP). Protein band intensity was measured using ImageJ, and the numerical value for each stressor-treated protein sample was normalized to the untreated sample on the same immunoblot.
# as §1, with “After 24 h, the transfection media were replaced with complete culturing media. After additional 2 days, cells were exposed to 1× cytokine cocktail, followed by immunoblotting and cytotoxicity analysis as described above.” left out
# ZnT8 [5] = target: T1, ZnT8; conditions: cited from earlier work
# [6] = 1 μM epoxomicin with 1× cytokines
molecule,measurement,setting,value
[Zn] [zinc],"endogenous ZnT8 level, dose profile",[1]; extracellular zinc from trace amount (EDTA chelation) to 600 μM,biphasic change
same,zinc concentration at the peak of the biphasic ZnT8 profile,[1]; extracellular zinc up to 600 μM,around 10 μM
same,"cellular insulin content, dose profile",EndoC-βH1 cells [2]; increasing stressor concentration,increased the insulin content
same,"zinc toxicity (CellTox, FIG. 2F)",EndoC-βH1 cells [3]; 600 μM zinc,zinc toxicity was evident
same,cell integrity (CellTox fluorescence),"EndoC-βH1 cells [3]; modest zinc exposure (<=200 μM), compared to untreated cells",did not alter the cell integrity
CC[C@H](C)[C@H](NC(=O)[C@H]([C@@H](C)CC)N(C)C(C)=O)C(=O)N[C@H](C(=O)N[C@@H](CC(C)C)C(=O)[C@@]1(C)CO1)[C@@H](C)O [epoxomicin],cytokine-induced downregulation of ZnT8,ZnT8 [4]; [6],blocked
same,ZnT8 expression,"ZnT8 [4]; epoxomicin alone, 1 μM",neither altered ZnT8 expression
same,cytokine-induced downregulation of insulin,EndoC-βH1 cells [2]; [6],blocked
same,damaged cells,"EndoC-βH1 cells [3]; combination of epoxomicin and 1× cytokine, 24 hr exposure",26.8%
B1,binding affinity,ZnT8 [5],subnanomolar
B2,binding affinity,ZnT8 [5],subnanomolar
